Assay results taken from patent US6461997B1, “Triazole sulfones having herbicidal activity” (Monsanto Technology LLC, priority 1999, dated 2002).

How the values were obtained:
DIGSA (large crabgrass) = experiment: Pre-emergence herbicidal activity, warm season; format: in vivo, Digitaria sanguinalis; details: GR80 = lowest tested rate (300, 100, 30, 10 g/ha) with 80% or greater inhibition; approx. 14 days after treating; 30/21° C.
How it was run: (§1)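 GR80 values, pre-emergence, soil applied at 300, 100, 30, 10 g/ha. Warm regime 30/21 °C: PANMI, DIGSA. Cool regime 18/13 °C: ALOMY, POLCO. Rating ~14 d, % inhibition vs untreated.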

[1] = tested on: CIRAR (canada thistle (seedling)); experiment: Pre-emergence herbicidal activity, warm season; format: in vivo, Cirsium arvense; details: GR80 = lowest tested rate (300, 100, 30, 10 g/ha) with 80% or greater inhibition; approx. 14 days after treating; 30/21° C.
How it was run: (§2)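 GR80 values derive from percent inhibition relative to untreated plants, read roughly 14 days after sowing and pre-emergence soil-surface treatment (compound in 50:50 acetone/water; rates typically 10, 30, 100, 300 g/ha). Warm-season weeds grew at 30/21° C day/night, cool-season ones at 18/13° C; an asterisk marks activity without reaching 80% at the highest rate.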

POLCO (wild buckwheat) = experiment: Pre-emergence herbicidal activity, cool season; format: in vivo, Polygonum convolvulus; details: lowest tested rate with 80% or greater inhibition; rates 300, 100, 30, 10 g/ha; about 14 days
How it was run: as §1

[2] = tested on: BRAPP (broadleaf signalgrass); experiment: Pre-emergence herbicidal activity, warm season; format: in vivo, Brachiaria platyphylla; details: GR80 = lowest tested rate (300, 100, 30, 10 g/ha) with 80% or greater inhibition; approx. 14 days after treating; 30/21° C.
How it was run: (§3)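 Activity is expressed as the rate giving 80% inhibition, with 300, 100, 30 and 10 g/ha typically tested. An asterisk marks activity short of 80% at the top rate. Warm-season grasses were held at 30/21 °C; cool-season blackgrass and wild buckwheat at 18/13 °C; scoring at about 14 days.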

STEME (common chickweed) = experiment: Pre-emergence herbicidal activity, cool season; format: in vivo, Stellaria media; details: lowest tested rate with 80% or greater inhibition; rates 300, 100, 30, 10 g/ha; about 14 days
How it was run: as §2

SETFA (giant foxtail) = experiment: Pre-emergence herbicidal activity, warm season; format: in vivo, Setaria faberi; details: GR80 = lowest tested rate (300, 100, 30, 10 g/ha) with 80% or greater inhibition; approx. 14 days after treating; 30/21° C.
How it was run: as §3

SASKR (russian thistle) = experiment: Pre-emergence herbicidal activity, cool season; format: in vivo, Salsola kali; details: lowest tested rate with 80% or greater inhibition; rates 300, 100, 30, 10 g/ha; about 14 days
How it was run: as §2

[3] = tested on: SORHA (johnsongrass (seedling)); experiment: Pre-emergence herbicidal activity, warm season; format: in vivo, Sorghum halepense; details: GR80 = lowest tested rate (300, 100, 30, 10 g/ha) with 80% or greater inhibition; approx. 14 days after treating; 30/21° C.
How it was run: as §3

AMARE (redroot pigweed) = experiment: Pre-emergence herbicidal activity, warm season; format: in vivo, Amaranthus retroflexus; details: GR80 = lowest tested rate (300, 100, 30, 10 g/ha) with 80% or greater inhibition; approx. 14 days after treating; 30/21° C.
How it was run: as §2

[4] = tested on: CHEAL (common lambsquarters); experiment: Pre-emergence herbicidal activity, warm season; format: in vivo, Chenopodium album; details: GR80 = lowest tested rate (300, 100, 30, 10 g/ha) with 80% or greater inhibition; approx. 14 days after treating; 30/21° C.
How it was run: as §2

SORVU (shattercane) = experiment: Pre-emergence herbicidal activity, warm season; format: in vivo, Sorghum vulgare; details: GR80 = lowest tested rate (300, 100, 30, 10 g/ha) with 80% or greater inhibition; approx. 14 days after treating; 30/21° C.
How it was run: as §3

SOLNI (black nightshade) = experiment: Pre-emergence herbicidal activity, warm season; format: in vivo, Solanum nigrum; details: GR80 = lowest tested rate (300, 100, 30, 10 g/ha) with 80% or greater inhibition; approx. 14 days after treating; 30/21° C.
How it was run: as §2

CONAR (field bindweed) = experiment: Pre-emergence herbicidal activity, warm season; format: in vivo, Convolvulus arvensis; details: GR80 = lowest tested rate (300, 100, 30, 10 g/ha) with 80% or greater inhibition; approx. 14 days after treating; 30/21° C.
Method: (§4) Tables 5 to 8 summarize results of tests conducted as described below to determine the pre-emergence herbicidal activity, in the form of a GR80 value, of illustrative compounds of this invention. […] Compounds of the invention were typically applied at rates of 300, 100, 30, and 10 g/ha. Where herbicidal activity was evident but 80% inhibition was not achieved at the highest rate tested, an asterisk (*) is shown in the following tables.
(§5) The pre-emergence tests were conducted by the following procedure. Topsoil was sieved to pass through a 1.27 cm screen. Fertilizer was added to the topsoil and the mixture was then sterilized by heating. The topsoil mixture was placed in a pot and compacted to a depth of 1.0 to 1.25 cm from the top of the pot. Seeds of each of several monocotyledonous and dicotyledonous annual plant species were placed on top of the soil. Additional soil was subsequently placed over the seeds to level-fill the pot. A known amount of each test compound dissolved or suspended in an appropriate organic solvent was diluted with a 50:50 mix of acetone and water and applied to the surface of the soil. After treatment the plants were placed in a greenhouse where they received 0.64 cm of overhead irrigation. All subsequent watering consisted of a light overhead mist and/or subirrigation as needed for germination and growth. Tables 5 and 6 below relate to warm season plant species which were placed after pre-emergence treatment in a greenhouse with a 30/21° C. day/night temperature regime. Tables 7 and 8 below relates to cool season plant species placed after pre-emergence treatment in a greenhouse or growth chamber with an 18/13° C. day/night temperature regime.
(§6) Approximately 14 days after planting and treating, the plants were observed and herbicidal efficacy recorded as percent inhibition by comparison with untreated plants.
(§7) The plant species usually regarded as weeds which were utilized in the tests are identified in the tables below according to the following legend, in which “d” indicates a dicotyledonous species and “m” a monocotyledonous species. All monocotyledonous species included in the tests herein are grasses.

[5] = tested on: LAMPU (purple deadnettle); experiment: Pre-emergence herbicidal activity, cool season; format: in vivo, Lamium purpureum; details: lowest tested rate with 80% or greater inhibition; rates 300, 100, 30, 10 g/ha; about 14 days
How it was run: as §2

POROL (common purslane) = experiment: Pre-emergence herbicidal activity, warm season; format: in vivo, Portulaca oleracea; details: GR80 = lowest tested rate (300, 100, 30, 10 g/ha) with 80% or greater inhibition; approx. 14 days after treating; 30/21° C.
How it was run: as §2

[6] = tested on: PANMI (wild proso millet); experiment: Pre-emergence herbicidal activity, warm season; format: in vivo, Panicum miliaceum; details: GR80 = lowest tested rate (300, 100, 30, 10 g/ha) with 80% or greater inhibition; approx. 14 days after treating; 30/21° C.
How it was run: as §1

ALOMY (blackgrass) = experiment: Pre-emergence herbicidal activity, cool season; format: in vivo, Alopecurus myosuroides; details: GR80 = lowest tested rate (300, 100, 30, 10 g/ha) with 80% or greater inhibition; approx. 14 days after treating; 18/13° C.
How it was run: as §1

[7] = tested on: AGSST (creeping bentgrass); experiment: Pre-emergence herbicidal activity, cool season; format: in vivo, Agrostis stolonifera; details: GR80 = lowest tested rate (300, 100, 30, 10 g/ha) with 80% or greater inhibition; approx. 14 days after treating; 18/13° C.
How it was run: as §2

SETVI (green foxtail) = experiment: Pre-emergence herbicidal activity, cool season; format: in vivo, Setaria viridis; details: GR80 = lowest tested rate (300, 100, 30, 10 g/ha) with 80% or greater inhibition; approx. 14 days after treating; 18/13° C.
How it was run: as §2

[8] = tested on: GALAP (catchweed bedstraw); experiment: Pre-emergence herbicidal activity, cool season; format: in vivo, Galium aparine; details: lowest tested rate with 80% or greater inhibition; rates 300, 100, 30, 10 g/ha; about 14 days
How it was run: as §2

[9] = tested on: VERPE (creeping speedwell); experiment: Pre-emergence herbicidal activity, cool season; format: in vivo, Veronica persicaria; details: lowest tested rate with 80% or greater inhibition; rates 300, 100, 30, 10 g/ha; about 14 days
How it was run: as §2

SINAR (wild mustard) = experiment: Pre-emergence herbicidal activity, cool season; format: in vivo, Sinapis arvensis; details: lowest tested rate with 80% or greater inhibition; rates 300, 100, 30, 10 g/ha; about 14 days
How it was run: as §2

ECHCG (barnyardgrass) = experiment: Pre-emergence herbicidal activity, warm season; format: in vivo, Echinochloa crus-galli; details: GR80 = lowest tested rate (300, 100, 30, 10 g/ha) with 80% or greater inhibition; approx. 14 days after treating; 30/21° C.
How it was run: as §3

PANDI (fall panicum) = experiment: Pre-emergence herbicidal activity, warm season; format: in vivo, Panicum dichotomiflorum; details: GR80 = lowest tested rate (300, 100, 30, 10 g/ha) with 80% or greater inhibition; approx. 14 days after treating; 30/21° C.
Method: as §4, §5, §6, §7

BROTE (downy brome) = experiment: Pre-emergence herbicidal activity, cool season; format: in vivo, Bromus tectorum; details: GR80 = lowest tested rate (300, 100, 30, 10 g/ha) with 80% or greater inhibition; approx. 14 days after treating; 18/13° C.
Method: as §4, §5, §6, §7

Row | Structure (SMILES) | Pre-emergence activity GR80, POLCO (POLCO (wild buckwheat)) | Pre-emergence activity (GR80) BRAPP [2] [g/ha] | Pre-emergence activity GR80, STEME (STEME (common chickweed)) | Pre-emergence activity (GR80) SETFA (SETFA (giant foxtail)) [g/ha] | Pre-emergence activity GR80, SASKR (SASKR (russian thistle)) | Pre-emergence activity (GR80) SORHA [3] [g/ha] | Pre-emergence activity (GR80) CHEAL [4] [g/ha] | Pre-emergence activity (GR80) CONAR (CONAR (field bindweed)) [g/ha] | Pre-emergence activity GR80, LAMPU [5] | Pre-emergence activity (GR80) POROL (POROL (common purslane)) [g/ha] | Pre-emergence activity (GR80) PANMI [6] [g/ha] | Pre-emergence activity (GR80) AGSST [7] [g/ha] | Pre-emergence activity GR80, GALAP [8] | Pre-emergence activity GR80, VERPE [9] | Pre-emergence activity GR80, SINAR (SINAR (wild mustard)) | also measured
1 | O=C(N1CCCC1)n1cnc(S(=O)(=O)C(F)(F)Cl)n1 [Example 83] | 300 g/ha | 100 | 300 g/ha | 300 | 300 g/ha | 300 | 100 | 300 | 100 g/ha | 100 | 100 | 100 | 100 g/ha | [empty] | [empty] | Pre-emergence activity (GR80) DIGSA (DIGSA (large crabgrass)): 100 g/ha; Pre-emergence activity (GR80) CIRAR [1]: 100 g/ha; Pre-emergence activity (GR80) AMARE (AMARE (redroot pigweed)): 300 g/ha; Pre-emergence activity (GR80) SORVU (SORVU (shattercane)): 300 g/ha; Pre-emergence activity (GR80) SOLNI (SOLNI (black nightshade)): 300 g/ha; Pre-emergence activity (GR80) ALOMY (ALOMY (blackgrass)): 300 g/ha; Pre-emergence activity (GR80) SETVI (SETVI (green foxtail)): 300 g/ha
2 | COCCN(C)C(=O)n1cnc(S(=O)(=O)C(F)(F)Br)n1 [Example 40] | [empty] | – | 300 g/ha | 300 | 300 g/ha | 300 | – | – | [empty] | – | 300 | 30 | [empty] | 100 g/ha | 100 g/ha | Pre-emergence activity (GR80) ECHCG (ECHCG (barnyardgrass)): 300 g/ha; Pre-emergence activity (GR80) PANDI (PANDI (fall panicum)): 300 g/ha; Pre-emergence activity (GR80) BROTE (BROTE (downy brome)): 100 g/ha
3 | O=C(N1CCCC1)n1cnc(S(=O)(=O)C(F)F)n1 [Example 24] | [empty] | 100 | [empty] | – | [empty] | – | 300 | 300 | [empty] | 100 | – | – | [empty] | [empty] | [empty] | –
